Experiments:
[1] = biological target: T1, RXRβ (Homo sapiens, UniProt P28702); experiment: Ligand binding assay, RXRβ
T1 construct: made in house; host or cells: Baculovirus expression (insect cell extract)
T1 sequence (P28702 1-533): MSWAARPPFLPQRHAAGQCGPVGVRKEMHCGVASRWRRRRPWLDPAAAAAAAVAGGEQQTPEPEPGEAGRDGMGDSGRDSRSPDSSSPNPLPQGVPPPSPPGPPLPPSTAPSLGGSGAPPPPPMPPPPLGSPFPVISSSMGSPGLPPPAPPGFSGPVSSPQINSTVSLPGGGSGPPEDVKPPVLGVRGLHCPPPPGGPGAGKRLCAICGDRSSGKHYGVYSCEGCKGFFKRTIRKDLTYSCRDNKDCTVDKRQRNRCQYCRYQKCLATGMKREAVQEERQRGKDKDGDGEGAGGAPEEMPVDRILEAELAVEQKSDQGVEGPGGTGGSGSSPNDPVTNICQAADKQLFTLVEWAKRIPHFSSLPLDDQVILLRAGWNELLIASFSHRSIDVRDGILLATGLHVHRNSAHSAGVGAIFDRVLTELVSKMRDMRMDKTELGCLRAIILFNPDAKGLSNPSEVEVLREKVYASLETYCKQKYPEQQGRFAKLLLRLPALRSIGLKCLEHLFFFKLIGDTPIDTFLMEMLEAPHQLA
Procedure: (§1) All binding assays were performed in a similar fashion. All six receptor types were derived from the expressed receptor type (RARα, β, Γ and RXRα, β, Γ) expressed in Baculovirus. Stock solutions of all compounds were prepared as 10 mM ethanol solutions and serial dilutions carried out into 1:1 DMSO; ethanol. Assay buffers consisted of the following for all six receptor assays: 8% glycerol, 120 mM KCl 8 mM Tris, 5 mM CHAPS 4 mM DTT and 0.24 mM PMSF, pH-7.4@ room temperature.
(§2) All receptor binding assays were performed in the same manner. The final assay volume was 250 μl and contained from 10-40 μg of extract protein depending on receptor being assayed along with 5 nM of [^3H] all-trans retinoic acid or 10 nM [^3H] 9-cis retinoic acid and varying concentrations of competing ligand at concentrations that ranged from 0-10^−5 M. The assays were formatted for a 96 well minitube system. Incubations were carried out at 4° C. until equilibrium was achieved. Non-specific binding was defined as that binding remaining in the presence of 1000 nM of the appropriate unlabeled retinoic acid isomer. At the end of the incubation period, 50 μl of 6.25% hydroxyapitite was added in the appropriate wash buffer. The wash buffer consisted of 100 mM KCl, 10 mM Tris and either 5 mM CHAPS (RXRα, β, Γ) or 0.5% Triton X-100 (RARα, β, Γ). The mixture was vortexed and incubated for 10 minutes at 4° C., centrifuged and the supernatant removed. The hydroxyapitite was washed three more times with the appropriate wash buffer. The receptor-ligand complex was adsorbed by the hydroxyapitite. The amount of receptor-ligand complex was determined by liquid scintillation counting of hydroxyapitite pellet.
(§3) After correcting for non-specific binding, IC50 values were determined. […] The IC50 value was determined graphically from a loglogit plot of the data. The […] were determined by application of the Cheng-Prussof equation to the IC50 values, the labeled ligand concentration and the Kd of the labeled ligand.
(§4) The results of ligand binding assay are expressed in Kd numbers. (See Cheng et al. Biochemical Pharmacology Vol. 22 pp 3099-3108, expressly incorporated herein by reference.)

[2] = biological target: T2, RXRα (Homo sapiens, UniProt P19793); experiment: Ligand binding assay, RXRα
T2 construct: made in house; host or cells: Baculovirus expression (insect cell extract)
T2 sequence (P19793 1-462): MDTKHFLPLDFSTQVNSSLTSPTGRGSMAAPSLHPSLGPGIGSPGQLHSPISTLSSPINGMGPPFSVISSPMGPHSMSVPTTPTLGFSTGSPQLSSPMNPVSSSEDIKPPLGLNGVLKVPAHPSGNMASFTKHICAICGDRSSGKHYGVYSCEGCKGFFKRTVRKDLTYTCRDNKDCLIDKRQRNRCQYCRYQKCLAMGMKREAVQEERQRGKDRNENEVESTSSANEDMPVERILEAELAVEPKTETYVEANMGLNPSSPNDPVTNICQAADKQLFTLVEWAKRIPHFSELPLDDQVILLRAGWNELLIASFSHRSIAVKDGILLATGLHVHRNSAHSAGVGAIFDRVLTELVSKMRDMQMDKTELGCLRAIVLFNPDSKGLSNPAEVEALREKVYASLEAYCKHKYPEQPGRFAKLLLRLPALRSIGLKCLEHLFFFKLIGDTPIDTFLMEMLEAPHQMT
Procedure: as §1, §2, §3, §4

[3] = biological target: T3, RXRΓ (Homo sapiens, UniProt P48443); experiment: Ligand binding assay, RXRΓ
T3 construct: made in house; host or cells: Baculovirus expression (insect cell extract)
T3 sequence (P48443 1-463): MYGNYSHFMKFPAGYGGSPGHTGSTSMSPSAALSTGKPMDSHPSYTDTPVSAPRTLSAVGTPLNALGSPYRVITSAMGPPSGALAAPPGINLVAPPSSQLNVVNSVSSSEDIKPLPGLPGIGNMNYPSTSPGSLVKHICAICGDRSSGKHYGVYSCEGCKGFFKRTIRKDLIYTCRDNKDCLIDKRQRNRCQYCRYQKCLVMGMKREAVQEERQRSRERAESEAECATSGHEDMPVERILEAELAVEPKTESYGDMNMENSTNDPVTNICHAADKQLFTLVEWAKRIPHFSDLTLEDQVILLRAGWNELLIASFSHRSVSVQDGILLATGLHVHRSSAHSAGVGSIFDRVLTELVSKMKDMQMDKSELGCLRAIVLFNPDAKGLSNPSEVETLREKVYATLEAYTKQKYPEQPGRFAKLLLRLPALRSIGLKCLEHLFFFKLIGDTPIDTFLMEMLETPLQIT
Procedure: as §1, §2, §3, §4

[4] = tested on: AML-193 cells (acute monocytic leukemia); experiment: AML 193 cell culture assay (3H-thymidine incorporation); assay type: cell-based, human; details: FIG. 2; low concentrations
Procedure: All trans-retinoic acid (t-RA) (Sigma Chemicals Co., St. Louis, Mo.) was stored at −70° C. Prior to each experiment the compound was dissolved in 100% ethanol at 1 mM and diluted in culture medium immediately before use. All experiments were performed in subdued light. Controls were assayed using the same concentration of ethanol as present in the experimental plates and this concentration of diluent had no effect in either assay.
AML-193 was established from the blast cells classified as M5 Acute Monocyte Leukemia. The growth factor, […] (GM-CSF) was required to establish this cell line and growth factors are necessary for its continuous proliferation in chemically defined medium. AML-193 cells were grown and maintained in Iscove's modified Dulbecco's medium supplemented with 10% fetal bovine serum, glutamine and antibiotics with 5 μg/ml insulin (Sigma Chemical Co.) and 2 ng/ml rh GM-CSF (R and D Systems). The cells were diluted to a concentration of 3×10^5/ml twice a week.
AML-193 cells were plated in a 96 well round bottom microtiter plate (Costar) at a density of 1,000 cells/well. To appropriate wells, retinoid test compounds were added at the final concentrations indicated for a final volume of 150 μl/well. The plates were incubated for 96 hours at 37° C. in a humidified atmosphere of 5% CO2 in air. Subsequently, 1 μCi of [5′-^3H]-thymidine (Amersham, U.K., 43 Ci/mmol specific activity) in 25 μl culture medium was added to each well and the cells were incubated for an additional 6 hours.
The cell lines were then processed as follows: the cellular DNA was precipitated with 10% trichloroacetic acid onto glass fiber filter mats using a SKATRON multi-well cell harvester (Skatron Instruments, Sterling Va.). Radioactivity incorporated into DNA, as a direct measurement of cell growth, was measured by liquid scintillation counting. The numbers represent the mean disintegrations per minute of incorporated thymidine from triplicate wells±SEM.

[5] = biological target: T4, RARβ (Homo sapiens, UniProt P10826); experiment: Ligand binding assay, RARβ
T4 construct: made in house; host or cells: Baculovirus expression (insect cell extract)
T4 sequence (P10826 1-455): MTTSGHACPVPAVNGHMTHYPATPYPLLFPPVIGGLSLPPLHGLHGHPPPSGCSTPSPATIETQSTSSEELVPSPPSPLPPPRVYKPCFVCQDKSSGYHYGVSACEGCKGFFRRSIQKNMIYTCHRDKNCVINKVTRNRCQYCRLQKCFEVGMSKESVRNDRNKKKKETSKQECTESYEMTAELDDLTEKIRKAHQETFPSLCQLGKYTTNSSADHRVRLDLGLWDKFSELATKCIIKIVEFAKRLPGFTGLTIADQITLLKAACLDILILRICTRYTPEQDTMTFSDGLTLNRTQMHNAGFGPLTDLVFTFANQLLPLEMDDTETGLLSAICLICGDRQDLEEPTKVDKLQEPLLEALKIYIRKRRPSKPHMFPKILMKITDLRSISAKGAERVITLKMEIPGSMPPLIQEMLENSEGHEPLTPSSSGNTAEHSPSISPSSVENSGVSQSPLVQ
Procedure: as §1, §2, §3, §4

[6] = biological target: T5, RARα (Homo sapiens, UniProt P10276); experiment: Ligand binding assay, RARα
T5 construct: made in house; host or cells: Baculovirus expression (insect cell extract)
T5 sequence (P10276 1-462): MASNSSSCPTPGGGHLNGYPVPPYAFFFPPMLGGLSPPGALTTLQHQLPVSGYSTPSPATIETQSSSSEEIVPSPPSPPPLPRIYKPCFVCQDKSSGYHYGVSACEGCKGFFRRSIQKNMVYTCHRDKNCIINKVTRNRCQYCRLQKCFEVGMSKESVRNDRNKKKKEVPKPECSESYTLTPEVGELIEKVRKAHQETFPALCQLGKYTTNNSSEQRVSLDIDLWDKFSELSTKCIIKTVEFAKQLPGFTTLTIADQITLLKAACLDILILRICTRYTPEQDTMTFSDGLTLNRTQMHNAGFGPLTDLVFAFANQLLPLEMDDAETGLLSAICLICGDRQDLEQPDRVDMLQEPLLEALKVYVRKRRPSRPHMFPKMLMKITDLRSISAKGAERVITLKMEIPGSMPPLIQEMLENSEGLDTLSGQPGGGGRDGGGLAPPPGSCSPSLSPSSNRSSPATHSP
Procedure: as §1, §2, §3
The results of ligand binding assay are expressed in Kd numbers. […]

[7] = biological target: T6, RARΓ (Homo sapiens, UniProt P13631); experiment: Ligand binding assay, RARΓ
T6 construct: made in house; host or cells: Baculovirus expression (insect cell extract)
T6 sequence (P13631 1-454): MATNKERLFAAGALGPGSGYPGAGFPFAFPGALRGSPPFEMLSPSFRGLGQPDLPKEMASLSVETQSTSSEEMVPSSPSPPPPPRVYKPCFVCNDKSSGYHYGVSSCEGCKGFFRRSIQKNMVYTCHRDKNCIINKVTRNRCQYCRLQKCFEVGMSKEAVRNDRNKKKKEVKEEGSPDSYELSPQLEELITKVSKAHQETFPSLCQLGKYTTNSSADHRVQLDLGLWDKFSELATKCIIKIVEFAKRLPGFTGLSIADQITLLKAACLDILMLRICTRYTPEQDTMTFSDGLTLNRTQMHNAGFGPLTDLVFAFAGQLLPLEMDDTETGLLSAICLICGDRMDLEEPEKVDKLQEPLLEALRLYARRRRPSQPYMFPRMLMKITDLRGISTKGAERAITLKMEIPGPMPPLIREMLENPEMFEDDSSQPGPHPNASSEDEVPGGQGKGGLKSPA
Procedure: as §1, §2, §3, §4

Row | Kd [1] [µM] | Kd [2] [µM] | Kd [3] [µM] | Kd [5] [µM] | Kd [7] [µM] | Molecule | growth of AML 193 cells at low concentrations [4] | Kd [6] [µM]
1 | – | – | – | 0.034 | 0.077 | CC1(C)CC=C(C#N)c2cc(C#Cc3ccc(C(=O)O)cc3)ccc21 [AGN 193090, 4-[(8-cyano-5,6-dihydro-5,5-dimethylnaphth-2-yl)ethynyl]benzoic acid, reference compound] | do not inhibit but rather at these low concentrations even stimulate such cell growth | 0.109
2 | – | – | – | – | – | CC1(C)CCC(C)(C)c2c1cc(C(=O)Nc1ccc(C(=O)O)c(F)c1)c(O)c2Br [Compound 30] | – | < 0.003
3 | > 1 | > 1 | > 1 | > 1 | > 1 | CC(C)(C)c1cc(C(=O)Nc2cc(F)c(C(=O)O)c(F)c2)cc(C(C)(C)C)n1 [Compound 50] | – | –
4 | > 1 | > 1 | > 1 | > 1 | > 1 | CC(C)(C)c1cc(C(=O)Nc2cc(F)c(C(=O)O)c(F)c2)cc(C(C)(C)C)c1 [Compound 52] | – | –
5 | > 1 | > 1 | > 1 | > 1 | > 1 | CC(C)(C)c1cc(C(=O)Nc2ccc(C(=O)O)c([N+](=O)[O-])c2)cc(C(C)(C)C)n1 [Compound 54] | – | –

Row | Molecule | Kd [1] [µM] | Kd [2] [µM] | Kd [3] [µM] | Kd [5] [µM] | Kd [7] [µM] | growth of AML 193 cells at low concentrations [4] | Kd [6] [µM]
6 | 2-Fluoro-4-[(3′,5′-di-t-butyl)phenylcarbamoyl]benzoic acid [Compound 46] | > 1 | > 1 | > 1 | – | – | – | –
7 | CC(C)(C)C=C1CCC(C)(C)c2ccc(C#Cc3ccc(C(=O)O)cc3)cc21 [AGN 193459, 4-[(5,6-dihydro-5,5-dimethylnaphth-7(6H)-8-(1-2,2-dimethylpropylidene)naphth-2-yl)ethynyl]benzoic acid, reference compound] | – | – | – | 0.002 | 0.007 | do not inhibit but rather at these low concentrations even stimulate such cell growth | 0.006
